According to patent US12643859B2, “Pyridyl oxycarboxylic acid oxime derivative and preparation method therefor, weeding composition and application thereof” (Qingdao Kingagroot Chemical Compound Co., Ltd., priority 2018, dated 2026):

Tests used:
Type in all cases: in vivo
[1] = tested on: Monocotyledonous and dicotyledonous weed seeds and main crop seeds; assay: Post-emergence test experiment (Table 3, 1000 g a.i./ha); conditions: 3 weeks in greenhouse, fresh weight inhibition
Outline: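 Weeds and crops (wheat, corn, rice, soybean, cotton, oilseed, millet, sorghum) grown in soil in the greenhouse and sprayed post-emergence at 2–3 leaf stage, 2 weeks after sowing. Compound in acetone with tween-80 plus methyl oleate emulsible concentrate (1.5 L/ha) as synergist, diluted in water. Fresh weight inhibition scored after 3 weeks.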

Indica rice = assay: Post-emergence test experiment, crop selectivity; conditions: post-emergence spray, 600 g a.i./ha plus water 450 kg/ha, 3 weeks in greenhouse
Procedure: (§1) The above described growth inhibition rate is fresh weight inhibition rate.
(§2) Post-emergence test experiment: Monocotyledonous and dicotyledonous weed seeds and main crop seeds (i. e. wheat, corn, rice, soybean, cotton, oilseed, millet and sorghum.) were put into a plastic pot loaded with soil. Then covered with 0.5-2 cm soil, the seeds were allowed to grow in good greenhouse environment. The test plants were treated at 2-3 leaf stage 2 weeks after sowing. The test compounds of the invention were dissolved with acetone respectively, then added with tween-80, and using 1.5 liters per hectare of an emulsible concentrate of methyl oleate as a synergist, and diluted by certain amount of water to certain concentration. The solution was sprayed to the plants with a sprayer. Then the plants were cultured for 3 weeks in the greenhouse, and the experiment result of weed controlling effect was listed in tables 3-4.

Japonica rice = assay: Post-emergence test experiment, crop selectivity; conditions: post-emergence spray, 600 g a.i./ha plus water 450 kg/ha, 3 weeks in greenhouse
Procedure: as §1, §2

Rice = assay: Transplanted rice safety evaluation; conditions: 1000 g a.i./ha, transplanted 3 leaf stage japonica rice, treated 5 days after transplantation, 21 days after treatment
Procedure: as §1
In addition, the rice field soil that loaded into the 1/1,000,000 ha pot was leveled to keep water storage at 3-4 cm depth. The 3 leaf stage rice (japonica rice) was transplanted at 3 cm of transplanting depth the next day. The compound of the present invention was treated by the same way after 5 days of transplantation.
(§3) The fertility condition of Scirpus juncoides, Sagittaria trifolia and Monochoria vaginalis 14 days after the treatment of the compound of the invention and the fertility condition of rice 21 days after the treatment of the compound of the invention respectively with the naked eye. Evaluate the weed control effect with 0-5 activity standard level.

Monochoria Vaginalis = assay: Weed control effect evaluation in rice field; conditions: 1000 g a.i./ha, paddy water application at 0.5 leaf stage, 14 days after treatment; weeds resistant to pyrazosulfuron-ethyl and penoxsulam
Text: as §1
(§4) Transplanted rice safety evaluation and weed control effect evaluation in rice field: Rice field soil was loaded into a 1/1,000,000 ha pot. The seeds of Scirpus juncoides, Sagittaria trifolia and Monochoria vaginalis were sowed and gently covered with soil, then left to stand still in greenhouse in the state of 0.5-1 cm of water storage. The tuber of Sagittaria trifolia was planted in the next day or 2 days later. It was kept at 3-4 cm of water storage thereafter. The weeds were treated by dripping the WP or SC water diluents prepared according to the common preparation method of the compounds of the present invention with pipette homogeneously to achieve specified effective amount when Scirpus juncoides, and Monochoria vaginalis reached 0.5 leaf stage and Sagittaria trifolia reached the time point of primary leaf stage.
as §3, with “level. Many compounds show excellent activity and selectivity.” for “level.”

Scirpus juncoides = assay: Weed control effect evaluation in rice field; conditions: 1000 g a.i./ha, paddy water application at 0.5 leaf stage, 14 days after treatment; weeds resistant to pyrazosulfuron-ethyl and penoxsulam
Text: as §1, §4
as §3, with “level. Many compounds show excellent activity and selectivity.” for “level.”

Sagittaria trifolia = assay: Weed control effect evaluation in rice field; conditions: 1000 g a.i./ha, paddy water application at primary leaf stage, 14 days after treatment; weeds resistant to pyrazosulfuron-ethyl and penoxsulam
Text: as §1, §4
as §3, with “level. Many compounds show excellent activity and selectivity.” for “level.”

Cyperus iria = assay: Post-emergence test experiment, weed control; conditions: post-emergence spray, 600 g a.i./ha plus water 450 kg/ha, 3 weeks in greenhouse
Procedure: as §1, §2

CCOC(=NOC(=O)C(C)Oc1nc(F)c(Cl)c(N)c1Cl)c1ccc(NC(C)=O)cc1 (stereo not drawn) [Compound 88]
Activity level (growth inhibition rate) Digitaria sanguinalis [1]: 5 (Level 5: the growth inhibition rate is greater than 85%)
Activity level (growth inhibition rate) Echinochloa crusgalli [1]: 5 (Level 5: the growth inhibition rate is greater than 85%)
Activity level (growth inhibition rate) Galium spurium [1]: 5 (Level 5: the growth inhibition rate is greater than 85%)
Activity level (growth inhibition rate) Leptochloa chinensis [1]: 5 (Level 5: the growth inhibition rate is greater than 85%)
Activity level (growth inhibition rate) Monochoria Vaginalis [1]: 5 (Level 5: the growth inhibition rate is greater than 85%)
Activity level (growth inhibition rate) Murdannia triquetra [1]: 5 (Level 5: the growth inhibition rate is greater than 85%)
Activity level (growth inhibition rate) Setaria viridis [1]: 5 (Level 5: the growth inhibition rate is greater than 85%)
Activity level (fresh weight growth inhibition rate), Indica rice (Indica rice): 0 (Level 0: the growth inhibition rate is less than 5%)
Activity level (fresh weight growth inhibition rate), Japonica rice (Japonica rice): 0 (Level 0: the growth inhibition rate is less than 5%)
Safety, 0-5 activity standard level, Rice (Rice): 0 (Level 0: the growth inhibition rate is less than 5%)
Weed control effect, 0-5 activity standard level, Monochoria Vaginalis (Monochoria Vaginalis): 5 (Level 5: the growth inhibition rate is greater than 85%)
Weed control effect, 0-5 activity standard level, Scirpus juncoides (Scirpus juncoides): 4 (Level 4: the growth inhibition rate is equal to or greater than 60% and less than 85%)
Weed control effect, 0-5 activity standard level, Sagittaria trifolia (Sagittaria trifolia): 4 (Level 4: the growth inhibition rate is equal to or greater than 60% and less than 85%)
Activity level (fresh weight growth inhibition rate), Cyperus iria (Cyperus iria): 5 (Level 5: the growth inhibition rate is greater than 85%)

COc1ccccc1C(F)=NOC(=O)C(C)Oc1nc(F)c(Cl)c(N)c1Cl (stereo not drawn) [Compound 84]
Activity level (growth inhibition rate) Digitaria sanguinalis [1]: 5 (Level 5: the growth inhibition rate is greater than 85%)
Activity level (growth inhibition rate) Echinochloa crusgalli [1]: 5 (Level 5: the growth inhibition rate is greater than 85%)
Activity level (growth inhibition rate) Galium spurium [1]: 5 (Level 5: the growth inhibition rate is greater than 85%)
Activity level (growth inhibition rate) Leptochloa chinensis [1]: 5 (Level 5: the growth inhibition rate is greater than 85%)
Activity level (growth inhibition rate) Monochoria Vaginalis [1]: 5 (Level 5: the growth inhibition rate is greater than 85%)
Activity level (growth inhibition rate) Murdannia triquetra [1]: 5 (Level 5: the growth inhibition rate is greater than 85%)
Activity level (growth inhibition rate) Setaria viridis [1]: 5 (Level 5: the growth inhibition rate is greater than 85%)
Activity level (fresh weight growth inhibition rate), Indica rice (Indica rice): 0 (Level 0: the growth inhibition rate is less than 5%)
Activity level (fresh weight growth inhibition rate), Japonica rice (Japonica rice): 0 (Level 0: the growth inhibition rate is less than 5%)
Safety, 0-5 activity standard level, Rice (Rice): 0 (Level 0: the growth inhibition rate is less than 5%)
Weed control effect, 0-5 activity standard level, Monochoria Vaginalis (Monochoria Vaginalis): 5 (Level 5: the growth inhibition rate is greater than 85%)
Weed control effect, 0-5 activity standard level, Scirpus juncoides (Scirpus juncoides): 4 (Level 4: the growth inhibition rate is equal to or greater than 60% and less than 85%)
Weed control effect, 0-5 activity standard level, Sagittaria trifolia (Sagittaria trifolia): 4 (Level 4: the growth inhibition rate is equal to or greater than 60% and less than 85%)
Activity level (fresh weight growth inhibition rate), Cyperus iria (Cyperus iria): 5 (Level 5: the growth inhibition rate is greater than 85%)

CC(=NOC(=O)C(C)Oc1nc(F)c(Cl)c(N)c1Cl)c1ccc(Cl)cc1 (stereo not drawn) [Compound 70]
Activity level (growth inhibition rate) Digitaria sanguinalis [1]: 5 (Level 5: the growth inhibition rate is greater than 85%)
Activity level (growth inhibition rate) Echinochloa crusgalli [1]: 5 (Level 5: the growth inhibition rate is greater than 85%)
Activity level (growth inhibition rate) Galium spurium [1]: 5 (Level 5: the growth inhibition rate is greater than 85%)
Activity level (growth inhibition rate) Leptochloa chinensis [1]: 5 (Level 5: the growth inhibition rate is greater than 85%)
Activity level (growth inhibition rate) Monochoria Vaginalis [1]: 5 (Level 5: the growth inhibition rate is greater than 85%)
Activity level (growth inhibition rate) Murdannia triquetra [1]: 5 (Level 5: the growth inhibition rate is greater than 85%)
Activity level (growth inhibition rate) Setaria viridis [1]: 5 (Level 5: the growth inhibition rate is greater than 85%)
Activity level (fresh weight growth inhibition rate), Indica rice (Indica rice): 0 (Level 0: the growth inhibition rate is less than 5%)
Activity level (fresh weight growth inhibition rate), Japonica rice (Japonica rice): 0 (Level 0: the growth inhibition rate is less than 5%)
Safety, 0-5 activity standard level, Rice (Rice): 0 (Level 0: the growth inhibition rate is less than 5%)
Weed control effect, 0-5 activity standard level, Monochoria Vaginalis (Monochoria Vaginalis): 5 (Level 5: the growth inhibition rate is greater than 85%)
Weed control effect, 0-5 activity standard level, Scirpus juncoides (Scirpus juncoides): 4 (Level 4: the growth inhibition rate is equal to or greater than 60% and less than 85%)
Weed control effect, 0-5 activity standard level, Sagittaria trifolia (Sagittaria trifolia): 4 (Level 4: the growth inhibition rate is equal to or greater than 60% and less than 85%)
Activity level (fresh weight growth inhibition rate), Cyperus iria (Cyperus iria): 5 (Level 5: the growth inhibition rate is greater than 85%)
